Assay results as given in article PMC11514049, “The Tmem16a chloride channel is required for mucin maturation after secretion from goblet-like cells in the Xenopus tropicalis tadpole skin” (Scientific Reports, 2024).
Where two headings read alike, the source gives them in different places. Each block holds one compound with its values, some of them ahead of it.

Legend:
X. tropicalis Tmem16a = X. tropicalis Tmem16a (Xenopus tropicalis, UniProt W8PFC5); experiment: Whole-cell patch clamp (QPatch) of X. tropicalis Tmem16a transfected into HEK293 cells; type: cell-based
Protocol: We cloned and expressed full-length X. tropicalis tmem16a in HEK293 cells. At 48 h post-transfection, channel conductance and pharmacological characteristics were examined by whole-cell voltage clamp. Tmem16a channel activity was evoked using membrane depolarisation in the presence of intracellular calcium, and resultant whole-cell currents measured using chloride-selective buffers.
HEK Flp-In-293 null cells (Thermo Fisher) were stored, thawed and cultured as described by the supplier, but without antibiotic supplementation of the growth medium. For transfections, cells were seeded in 75 cm^2 vented culture flasks at a density of 0.018 × 10^6 cells per cm^2 and maintained at 37 °C in 5% CO2 for 24 h, to ensure approximately 40% confluence at the point of transfection. Cells were transfected with 6 µg of pCS2-tmem16a plasmid in a 1:6 volume ratio with transfection reagent GeneJammer (Agilent), according to the manufacturer’s protocol. Transfected cells were maintained in antibiotic-free growth medium at 37 °C in 5% CO2 for 24 h. The transfection medium was then aspirated, replaced with complete growth medium containing 1% penicillin-streptomycin (GIBCO), and cells cultured for a further 24 h at 37 °C in 5% CO2 to achieve 70–80% confluence prior to electrophysiology studies. HEK cells expressing Tmem16a were harvested using a 2:1 volume ratio of Detachin (AMSBio) and 0.05% Trypsin-EDTA (GIBCO), and resuspended in CHO serum-free medium (GIBCO) supplemented with 25 mM HEPES (GIBCO) and 0.04 mg ml^−1 trypsin inhibitor (Sigma Aldrich) to a density of 2.5-5.0 × 10^6 cells ml^−1. […] To prevent clumping of the suspended cells prior to assay, the cell suspension was maintained by stirring gently but continually at room temperature for 20 min to 2 hours.
Single cell whole-cell patch clamp recordings were performed using the QPatch planar patch-clamp system (Sophion Biosciences). The automated platform resuspended the cells in extracellular buffer containing NMDG-Cl (130 mM), HEPES (10 mM), CaCl2 (2 mM) and MgCl2 (1 mM), adjusted to pH 7.30 using HCl and 325 mOsm using sucrose. On establishing single-cell giga-Ohm seals, cell membranes were ruptured by suction pulse and dialysed with intracellular solution containing NMDG-Cl (130 mM), EGTA (20 mM), CaCl2 (20 mM; calculated to deliver a free intracellular [Ca^2+] of 338 nM (https://somapp.ucdmc.ucdavis.edu/pharmacology/bers/maxchelator/webmaxc/webmaxcE.htm) at 22 °C to achieve high Tmem16a-mediated current activation for testing inhibitor compounds), HEPES (10 mM), BAPTA (10 mM), MgCl2 (1 mM) and Mg-ATP (2 mM), adjusted to pH 7.25 using HCl and 325 mOsm using sucrose. The calcium activation curve was achieved by varying CaCl2 concentration from 0 to 25.7 mM to generate a 0-1000 nM range of free intracellular [Ca^2+].
Whole-cell recordings were performed from a resting membrane potential of - 70 mV, applied across the cell membrane between an intracellular (working) and extracellular (reference) electrode in each QPatch recording well. To activate Tmem16a currents, the membrane was depolarised once every 20 s for a duration of 1 s. For concentration-response experiments, this depolarising step was set to + 70 mV. To test current-voltage relationship, the depolarisations were varied between − 90 and + 90 mV in 20 mV increments. Signals were subject to fourth-order Bessel filtering (sampling frequency 10 kHz, cut-off 3 kHz). Capacitance and series resistance were monitored throughout the recordings; data was only accepted from wells in which these parameters remained stable.
All current data was captured at the end of the 1 s depolarising voltage step.

[1] = test system: background chloride current of sham HEK-293 transfects; experiment: Whole-cell patch clamp of sham-transfected HEK cells (background chloride current); type: cell-based; settings: 100 µM CaCCinh-A01
Text: Methods: Pharmacology data was generated from 16 QPatch runs. […] This definition of ‘transfected’ vs ‘untransfected’ was established by comparing transfected cell recordings with ‘sham’ transfects, i.e. cells that had undergone the same transfection process but with the omission of plasmid DNA (Supplementary Figure S1). […] Cells with these characteristics were deemed to be expressing X. tropicalis Tmem16a, and only recordings from successfully-transfected cells which additionally passed seal/series resistance and capacitance quality control criteria, were used in analysis of X. tropicalis Tmem16a currents.

human TMEM16A = settings: cited from earlier work
human TMEM16Aacd = settings: cited from earlier work
Tmem16a = experiment: Wholemount immunofluorescence for Tmem16a in tadpole skin after morpholino injection; type: in vivo, Xenopus tropicalis; settings: 15 ng MO injected into fertilised egg, tadpoles at NF38, vs MOC
Protocol: (§1) Embryos for microinjection were de-jellied for approximately five minutes in 0.1 X MMR containing 2% (w/v) L-cysteine (pH 7.8), and washed several times in 0.1 X MMR. Microinjections were performed at NF1/fertilised egg (or, where indicated in the text, NF4/8-cell stage) using a Picospritzer III microinjector (Intracel) to inject 1–4 nl volumes. During injection and for one hour after, embryos were maintained in 0.1 X MMR containing 2% (w/v) Ficoll™ 400 (Thermo Fisher). Antisense morpholino oligonucleotides (MO) and standard control MO (MOC) were designed by and purchased from Gene Tools LLC. MO sequences were: MOC 5′-[…]-3′; tmem16a splice MO 5’-[…]-3’. MOs were reconstituted to 20 ng nl^−1 in non-DEPC-treated nuclease-free water (Thermo Fisher) and stored in small aliquots in tightly-sealed vials at room temperature. MOs were heated at 65 °C for five minutes then vortexed before dilution/use, to ensure the MO was fully dissolved. […]
Wholemount chromogenic and fluorescence in situ hybridisation was performed as previously described[84],[85]. […] Chromogenic staining and fluorescence were visualised by stereomicroscopy (Leica M165 FC using Leica Application Suite X v5.2.2 software) and fluorescence by confocal imaging (Olympus IX81 using FV10-ASW v4.2 software). […] Fiji v2.14.0 software[88] was used to convert images into colours accesible to colour-blind readers.

[2] = test system: MucXS secretion from tadpole skin; experiment: Ionomycin-induced MucXS secretion into tadpole media (slot blot, anti-MucXS); type: in vivo, Xenopus tropicalis; settings: 10 min, MO- vs MOC-injected embryos, three biological replicates, p = 0.0062
Protocol: as §1
Batches of 100 NF42 embryos were collected in 500 µl 0.01 X MMR in a single well of a 24-well plate. […] MucXS in unfractionated or fractionated media was detected via slot blotting and subsequent immunodetection with an anti-MucXS antibody. Quantification of signal from slot blots was achieved using Fiji v2.14.0 software to capture the raw integrated density of pixels for each signal band. […]

human TMEM16Aabc = settings: whole-cell patch clamp ref 65; cited from earlier work
[3] = maximally-active current, 338 nM free [Ca2+]i (EC100), +70 mV, HEK293, mean ± SEM, read-out: IC50 X. tropicalis Tmem16a

Sequence of X. tropicalis Tmem16a (W8PFC5 entry or part of it): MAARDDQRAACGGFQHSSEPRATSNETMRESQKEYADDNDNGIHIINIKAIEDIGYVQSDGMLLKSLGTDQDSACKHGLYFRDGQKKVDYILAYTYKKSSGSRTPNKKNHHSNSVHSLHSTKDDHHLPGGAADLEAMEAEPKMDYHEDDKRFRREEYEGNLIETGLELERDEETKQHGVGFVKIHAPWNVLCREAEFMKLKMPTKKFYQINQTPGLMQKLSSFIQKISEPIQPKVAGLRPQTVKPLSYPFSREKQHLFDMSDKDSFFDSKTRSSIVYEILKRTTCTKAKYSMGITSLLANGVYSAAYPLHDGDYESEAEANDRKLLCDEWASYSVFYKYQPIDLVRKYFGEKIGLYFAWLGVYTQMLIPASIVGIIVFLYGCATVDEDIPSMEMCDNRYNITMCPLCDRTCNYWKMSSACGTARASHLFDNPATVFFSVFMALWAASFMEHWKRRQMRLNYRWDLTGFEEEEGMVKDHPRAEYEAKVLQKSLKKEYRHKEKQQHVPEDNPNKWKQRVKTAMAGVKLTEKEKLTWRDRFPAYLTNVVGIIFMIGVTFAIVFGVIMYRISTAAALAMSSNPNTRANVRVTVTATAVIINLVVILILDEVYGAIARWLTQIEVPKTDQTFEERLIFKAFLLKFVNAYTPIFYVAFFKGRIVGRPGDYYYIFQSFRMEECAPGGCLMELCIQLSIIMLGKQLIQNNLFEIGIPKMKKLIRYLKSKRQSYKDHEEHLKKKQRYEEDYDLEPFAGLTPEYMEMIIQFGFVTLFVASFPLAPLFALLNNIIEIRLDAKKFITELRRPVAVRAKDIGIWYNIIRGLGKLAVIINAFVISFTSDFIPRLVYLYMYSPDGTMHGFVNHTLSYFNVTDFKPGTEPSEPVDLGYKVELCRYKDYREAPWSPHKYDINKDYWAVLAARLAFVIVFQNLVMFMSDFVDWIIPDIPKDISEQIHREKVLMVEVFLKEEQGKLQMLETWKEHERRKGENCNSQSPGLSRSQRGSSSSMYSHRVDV

Compound: CC(C)(C)C1CCc2c(sc(NC(=O)c3ccco3)c2C(=O)O)C1 (stereo not shown) [CaCCinhA01]
- Block of large slowly-activating current in tmem16a-transfected cells (X. tropicalis Tmem16a; 100 µM CaCCinh-A01): sensitivity to block
- IC50 (X. tropicalis Tmem16a; [3]): 12.9 ± 1.96 µM
- Block of background chloride current in sham transfects [1]: blocked

- Direct inhibition of X. tropicalis Tmem16a channel function (X. tropicalis Tmem16a; maximal conductance, 338 nM free [Ca2+]i, +70 mV): did not directly inhibit
- IC50 (X. tropicalis Tmem16a; [3]): > 30 µM
Compound: CCc1c(C)nc(SCC(=O)Nc2nc(-c3ccc(OC)cc3)cs2)[nH]c1=O [T16inh-A01]
- IC50 (human TMEM16Aacd; whole-cell patch clamp ref 60): 1.51 µM
- IC50 (human TMEM16Aacd; whole-cell patch clamp ref 63): > 30 µM

Compound: O=C(O)c1ccc(/C=C2\SC(=S)N(c3cccc(C(F)(F)F)c3)C2=O)cc1 [CFTR Inh-172]
- IC50 (X. tropicalis Tmem16a; [3]): > 30 µM

Compound: O=C(O)c1c2ccccc2cc2ccccc12 [9-AC]
- IC50 (X. tropicalis Tmem16a; [3]): 146 ± 65.8 µM
- IC50 (human TMEM16Aacd; whole-cell patch clamp ref 60): 57.7 µM

Compound: tmem16a splice MO: antisense morpholino oligonucleotide 5'-AATGTTCATTCTTTTTACCTCTTCA-3' targeting donor splice site of exon 2 of tmem16a pre-mRNA (all phosphorodiamidate morpholino (PMO))
- Tmem16a protein in the plasma membrane of SSCs in the tadpole skin (Tmem16a): complete loss
- Increase of MucXS secretion from the tadpole skin [2]: 3 fold

Compound: [Ca+2] [intracellular calcium, calcium]
- EC50 (X. tropicalis Tmem16a; free [Ca2+]i varied, fixed depolarisation voltage, read-out: EC50 of intracellular calcium for current conductance): 0.227 ± 0.043 µM

- IC50 (X. tropicalis Tmem16a; [3]): > 30 µM
Compound: COC1=C(OC)C(=O)C(CCCCCCCCCCO)=C(C)C1=O [Idebenone]
- % inhibition human TMEM16A by 10 µM (human TMEM16A; 10 µM, whole-cell patch clamp ref 61): 54%
- % inhibition human TMEM16A by 30 µM (human TMEM16A; 30 µM, whole-cell patch clamp ref 61): 90%

- Block of large slowly-activating current in tmem16a-transfected cells (X. tropicalis Tmem16a; 10 µM Ani9): sensitivity to block
- Inhibition of evoked Tmem16a current (X. tropicalis Tmem16a; 10 µM Ani9, 1 s step from -70 to +70 mV, 338 nM free [Ca2+]i): completely inhibited
- Inhibition of Tmem16a current conductance at varied [Ca2+]i (X. tropicalis Tmem16a; 10 µM Ani9, all calcium concentrations, fixed depolarisation voltage): inhibited at all calcium concentrations
- IC50 (X. tropicalis Tmem16a; [3]): 0.098 ± 0.009 µM
Compound: COc1ccccc1/C=N/NC(=O)COc1ccc(Cl)cc1C [Ani9]

Compound: CCc1oc2ccccc2c1C(=O)c1cc(Br)c(O)c(Br)c1 [Benzbromarone]
- IC50 (X. tropicalis Tmem16a): 3.3 ± 1.45 µM
- IC50 (human TMEM16Aacd; whole-cell patch clamp ref 63): 4.09 µM
- IC50 (human TMEM16Aacd; whole-cell patch clamp ref 64): 2.35 µM
- IC50 (human TMEM16Aabc): 3.05 µM

Compound: COc1cc(Nc2ccc([N+](=O)[O-])cc2C(=O)O)cc2ccccc12 [MONNA]
- IC50 (X. tropicalis Tmem16a; [3]): 11.9 ± 3.45 µM
- IC50 (human TMEM16Aacd; whole-cell patch clamp ref 63): 13.6 µM

Compound: O=C(O)c1cccnc1Nc1cccc(C(F)(F)F)c1 [Niflumic acid]
- IC50 (X. tropicalis Tmem16a): 85.1 ± 19.1 µM
- IC50 (human TMEM16Aacd; whole-cell patch clamp ref 60): 12.1 µM
- IC50 (human TMEM16Aacd; whole-cell patch clamp ref 61): 8.34 µM
- IC50 (human TMEM16Aacd; whole-cell patch clamp ref 63): 8.54 µM
